pKi: −log10 of the molar value. Read-outs that look alike come from different tables or passages of the source.
Columns and labels:
mGluR5 receptors = target: T1, mGluR5 receptors (Homo sapiens, UniProt P41594); assay: In vitro binding to glutamate receptors ([^3H]MPEP displacement, membranes of transfected cell lines); conditions: mGluR5, radioligand [^3H]MPEP
T1 construct: expressed in transfected cells; host or cells: transiently or stably transfected cell lines (e.g., HEK293, COS, CHO, NIH3T3)
Description: The assay buffer is Standard Binding Buffer (50 mM Tris-HCl, 10 mM MgCl2, 0.1 mM EDTA, pH 7.4) and the membrane fraction source is transiently or stably transfected cell lines (e.g., HEK293, COS, CHO, NIH3T3)
Aliquots (50 μL) of radioligand are dispensed into the wells of a 96-well plate containing 100 μl of Standard Binding Buffer. Then, duplicate 50-μL aliquots of the test and reference compound dilutions are added.
The 250-4, reactions are incubated at room temperature and shielded from light (to prevent photolysis of light-sensitive ligands) for 1 hour, then harvested by rapid filtration onto Whatman GF/B glass fiber filters pre-soaked with 0.3% polyethyleneimine using a 96-well Brandel harvester. Four rapid 500-μL washes are performed with chilled Standard Binding Buffer to reduce non-specific binding. Filters are placed in 6-mL scintillation tubes and allowed to dry overnight. The next day, 4 mL of EcoScint scintillation cocktail (National Diagnostics) are added to each tube. The tubes are capped, labeled, and counted by liquid scintillation counting. […] The filter mats are dried, then scintillant is melted onto the filters and the radioactivity retained on the filters is counted in a Microbeta scintillation counter.
Raw data (dpm) representing total radioligand binding (i.e., specific+non-specific binding) are plotted as a function of the logarithm of the molar concentration of the competitor (i.e., test or reference compound).
Ki=IC50/(1+[ligand]/KD) (Eqn. 2)
where [ligand] equals the assay radioligand concentration and KD equals the affinity constant of the radioligand for the target receptor.

[1] = monkey; cited from earlier work
[2] = rat; cited from earlier work
[3] = human subjects; cited from earlier work

T1 sequence (P41594 21-1212): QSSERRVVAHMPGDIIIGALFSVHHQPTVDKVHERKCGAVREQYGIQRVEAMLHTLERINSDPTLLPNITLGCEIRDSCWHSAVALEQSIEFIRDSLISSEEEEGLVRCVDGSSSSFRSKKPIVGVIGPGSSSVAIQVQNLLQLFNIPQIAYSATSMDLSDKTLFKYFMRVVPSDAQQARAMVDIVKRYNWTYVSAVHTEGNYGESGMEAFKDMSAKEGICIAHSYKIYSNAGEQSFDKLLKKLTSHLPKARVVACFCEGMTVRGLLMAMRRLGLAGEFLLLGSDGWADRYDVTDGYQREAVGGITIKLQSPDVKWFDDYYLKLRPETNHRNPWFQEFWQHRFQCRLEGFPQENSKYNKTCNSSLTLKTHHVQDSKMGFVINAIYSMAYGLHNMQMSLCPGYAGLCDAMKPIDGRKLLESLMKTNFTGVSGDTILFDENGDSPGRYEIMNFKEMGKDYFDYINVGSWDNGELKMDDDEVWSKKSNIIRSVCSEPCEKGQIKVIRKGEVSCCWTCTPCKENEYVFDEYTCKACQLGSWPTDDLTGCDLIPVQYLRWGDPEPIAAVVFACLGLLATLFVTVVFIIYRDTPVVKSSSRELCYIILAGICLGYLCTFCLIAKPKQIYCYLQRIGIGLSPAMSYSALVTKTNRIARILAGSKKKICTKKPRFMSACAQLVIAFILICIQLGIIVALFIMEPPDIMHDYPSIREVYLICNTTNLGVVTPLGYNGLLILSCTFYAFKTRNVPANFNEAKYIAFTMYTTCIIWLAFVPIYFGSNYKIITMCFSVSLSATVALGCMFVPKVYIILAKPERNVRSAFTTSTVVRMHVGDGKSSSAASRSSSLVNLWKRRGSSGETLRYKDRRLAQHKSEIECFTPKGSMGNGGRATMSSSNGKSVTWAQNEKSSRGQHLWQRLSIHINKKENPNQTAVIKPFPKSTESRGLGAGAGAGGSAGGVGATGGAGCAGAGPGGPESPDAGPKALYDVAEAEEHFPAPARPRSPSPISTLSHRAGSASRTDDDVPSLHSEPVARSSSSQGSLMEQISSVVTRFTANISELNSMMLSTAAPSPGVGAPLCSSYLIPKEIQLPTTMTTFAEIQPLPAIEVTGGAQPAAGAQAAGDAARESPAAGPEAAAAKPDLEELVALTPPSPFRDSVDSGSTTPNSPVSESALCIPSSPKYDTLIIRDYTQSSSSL

| Structure (SMILES) | pKi (mGluR5 receptors) | other results |
| --- | --- | --- |
| N#Cc1cc(F)cc(C#Cc2csc(C[18F])n2)c1 [[^18F]SP203, 3-fluoro-5-[[2-([^18F]fluoromethyl)thiazol-4-yl]ethynyl]benzonitrile] | – | defluorination [1]: rapidly defluorinated; defluorination [2]: rapidly defluorinated; defluorination [3]: slower or negligible |
| Fc1nc(C#Cc2ccccc2)cs1 [Compound 12, 2-fluoro-4-(phenylethynyl)thiazole] | > 6.82 | – |
| N#Cc1cc(F)cc(C#Cc2csc(F)n2)c1 [Compound 14, 3-fluoro-5-((2-fluorothiazol-4-yl)ethynyl)benzonitrile] | > 7.30 | – |
| COc1cccc(C#Cc2csc(F)n2)c1 [Compound 15] | > 7.30 | – |

The next lines start with results.

| pKi (mGluR5 receptors) | Structure (SMILES) | other results |
| --- | --- | --- |
| > 7.30 | N#CCc1cccc(C#Cc2csc(F)n2)c1 [Compound 16] | – |
| > 7.30 | N#Cc1cccc(C#Cc2csc(F)n2)c1 [Compound 13, (5-((2-fluorothiazol-4-yl)ethynyl)benzonitrile)] | – |
